{"source": "patent EP2711366A1", "about": "“Cationic triphenylamine derivatives activable by visible and Infra Red light for inducing and imaging apoptosis in cancer cells” (Institut Curie, priority 2012, dated 2014)", "key": {"[1]": {"experiment": "Dark toxicity (MTT assay, without illumination)", "format": "cell-based", "conditions": "human; MCF-7 cells, tested in dark; read-out: TC50 (toxicity concentration 50%), dark toxicity", "procedure": "(§1) Different experiments were conducted and described below: • MCF7 cells were treated with 2µM of TP2Py or TP3Bzim and exposed to illumination (Fig.9A); • HeLa cells were treated with 2µM of TP2Py or TP3Bzim and exposed to illumination (Fig.9B); • MCF7 cells were treated with TP2Py, 40 min illumination (black circles) or without illumination (white circles) (Fig.9C) • HeLa cells were treated with TP2Py [30 min illumination (black circles) or without illumination (white circles)] or TP3Bzim [15 min illumination (black triangles) or without illumination (white triangles)]\n(§2) For each experiment, the source of excitation was a Mercury lamp (130W; 380-600nm) with an excitation filter centered at 452nm (± 45 nm), irradiance, 60mW/cm^2.\n(§3) First, the experiment was calibrated by determining the time of illumination exposure which leads to the toxicity 50%, for a given concentration of TPA (2 µM) and for an irradiance of 60mW/cm^2. […] This characteristic time was then used for the plots shown in Fig. 9C and 9D which represent the cell viability as a function of TPA concentration (in HeLa and MCF-7 cells, respectively)."}, "HeLa cells [2]": {"tested_on": "HeLa cells", "experiment": "Cytophototoxicity by MTT assay under illumination", "format": "cell-based", "conditions": "irradiance 60mW/cm^2", "procedure": "as §1, §2, §3"}, "[3]": {"tested_on": "PARP (poly-ADP ribose polymerase) cleavage in HeLa cells", "experiment": "PARP cleavage by Western blot and cell morphology after illumination", "format": "cell-based", "conditions": "2 µM, 2h, 17 mW.cm^-2, 452 nm filter", "protocol": "HeLa cells were plated in 6-well plates (4.10^5 cells/well) and incubated with 2 µM TP2Py for 2h at 37°C. After varying illumination times (up to 90min) at 17 mW.cm^-2 (Mercury lamp (130W; 380-600nm) + excitation filter centered at 452 nm (± 45 nm)), cells were collected by scraping, washed once in ice-cold PBS, treated with lysis buffer (1% Nonidet P-40, 20 mM Tris pH 8.0, 137 mM NaCl, 10% glycerol (v/v)) supplemented with 1 mM phenyl-methylsulfonyl fluoride, 1 mM sodium orthovanadate and anti-protease cocktail (Complete, Boehringer Mannheim, Germany) for 20 min on ice and further centrifuged at 10000g for 10 min. Protein concentrations were determined using the bicinchoninic acid method (micro BCA, Pierce, USA). 40µg of detergent soluble proteins were separated by SDS-PAGE under reducing conditions followed by Western blotting. Membranes were first incubated overnight at 4°C with the rabbit primary polyclonal antibody anti-PARP (Cell Signaling Technology). Membranes were then probed with horseradish peroxidase-labelled anti-rabbit IgG (dilution, 1/2000) (Dakocytomation). Detection was based on a chemiluminescence detection system (GE Healthcare, Orsay, France). […]\nThe cleavage of PARP, a hallmark of apoptosis, was assessed by Western blot using an anti-PARP antibody that recognizes both the entire and cleaved PARP (Fig. 11)."}, "MCF-7 cells": {"tested_on": "MCF-7 cells", "experiment": "FITC-conjugated Annexin V staining, flow cytometric analysis (apoptosis)", "format": "cell-based", "conditions": "for HMFI population: 30 min illumination; for HMFI population (Annexin V positive, TP2Py positive): 2µM, 2 hours", "protocol": "MCF-7 cells were plated in 12-well plates (2.10^5 cells/well) and incubated with 2µM of TP2Py for 2h at 37°C. Under specific conditions (see Fig. 12), cells were further incubated with NAC (1mM) for 30 min, Bapta-AM (20µM) for 3h, or CsA (10µM) for 1h at 37°C. After a time illumination of either 30 or 60 min at […] (Mercury lamp (130W; 380-600nm) + excitation filter centered at 452nm (± 45nm)), cells were gently scraped and pooled with medium floating cells. Cells were individualized in PBS-EDTA (10mM) and stained as described by the manufacturer (Roche, Germany). Briefly, the cell pellet was re-suspended in 500µl Annexin V-HEPES solution (10 mM HEPES-NaOH, pH 7.4, 140mM NaCl, 5mM CaCl2) and incubated on ice for 30 min in the dark. Cells were then washed in ice-cold HEPES buffer before analysis. Fluorescence signals of fluorescently labelled (FITC) Annexin V and TP2Py were measured by a FACSCalibur flow cytometer (Becton-Dickinson, Sunnyvale, CA, USA) using FL1 and FL2 detectors, respectively.\nDifferent experiments are summarized below: • MCF-7 cells treated with 2µM TP2Py for 2 hours and then stained with FITC-conjugated Annexin V immediately (Fig.12A) without light exposure; • MCF-7 cells treated with 2µM TP2Py for 2 hours and then stained with FITC-conjugated Annexin V after a time illumination (Exc, 452 nm) of 30 min (Fig.12B); • MCF-7 cells treated with 2µM TP2Py for 2 hours and then stained with FITC-conjugated Annexin V after a time illumination (Exc, 452 nm) of 60 min (Fig.12C); • control MCF-7 cells treated with DMSO (1%) only and illuminated for 30 min before Annexin V staining (Fig.12D); • control MCF-7 cells treated with 1µg/mL actinomycin D (ActD), no illumination before Annexin V staining (Fig.12E); • control MCF-7 cells treated with camptothecin (CPT, 10µM)) (Fig.12F) for 2.5 hours, no illumination before Annexin V staining; • MCF-7 cells treated during 2 hours with 2µM TP2Py and 10µM cyclosporine A (CsA) and illuminated for 30 min before Annexin V staining (Fig.12G); • MCF-7 cells treated during 2 hours with 2µM TP2Py and 1 mM N-Acetyl cysteine (NAC) and illuminated for 30 min before Annexin V staining (Fig.12H); and • MCF-7 cells treated during 2 hours with 2µM TP2Py and 20µM Bapta-am (Fig.12I) and illuminated for 30 min before Annexin V staining.\nThe horizontal (FL1-H) and vertical (FL2-H) axes correspond to the fluorescence signal of Annexin V and TP2Py, respectively. The percentage of population with a high mean fluorescence signal is indicated in the corresponding quadrant (top right or bottom right in the presence or absence of TP2Py, respectively)."}, "[4]": {"tested_on": "ROS (reactive oxygen species) in MCF7 cells", "experiment": "Fluorescence detection of ROS generation with H2DCF-DA probe, flow cytometry", "format": "cell-based", "conditions": "2µM, 2 hours", "protocol": "CF-7 cells were plated in 12-well plates (2.10^5 cells/well) and incubated with 2µM of TP2Py for 2h at 37°C. After a time illumination of 30 min [Irradiance, 40mW/cm^2. The source of excitation was a Mercury lamp (130 W; 380-600 nm) with an excitation filter centered at 452 nm (± 45 nm)], cells were gently scraped, individualized in PBS-EDTA (10 mM) and stained with 10µM of […] (H2DCF-DA) (Molecular Probe, USA) for 45 min. Cells were then washed in ice-cold HEPES buffer before analysis. Fluorescence signals of H2DCF-DA and TP2Py were measured by FACSCalibur flow cytometer using FL1 and FL2 detectors, respectively.\nDifferent experiments are summarized below: • Control MCF7 cells were treated with DMSO (1%) (Fig.13A) without light exposure; • MCF7 cells were plated and treated with H2DCF-DA and 2µM TP2Py for 2 hours without light exposure (Fig.13B); • MCF7 cells were plated and treated with H2DCF-DA and 2µM TP2Py for 2 hours after a time illumination of 30 min (Fig.13C)\nThe horizontal (FL1-H) and vertical (FL2-H) axes correspond to fluorescence signals of H2DCF-DA and TP2Py, respectively."}, "HeLa cells [5]": {"tested_on": "HeLa cells", "procedure": "as §1, §2, §3"}, "DNA": {"tested_on": "DNA", "conditions": "cited from earlier work"}}, "data": [{"smiles": "C[n+]1ccc(/C=C/c2ccc(N(c3ccccc3)c3ccc(/C=C/c4cc[n+](C)cc4)cc3)cc2)cc1", "note": "[TP2Py]", "values": [{"measurement": "CC50", "setting": "[1]", "value": "> 30", "unit": "µM"}, {"measurement": "illumination time required for the same TC50 under illumination", "setting": "HeLa cells [2]; Mercury lamp, filter 452nm", "value": 30, "unit": "min"}, {"measurement": "corresponding light dose", "setting": "HeLa cells [2]", "value": 108, "unit": "J/cm^2"}, {"measurement": "illumination time after which PARP cleavage was detected", "setting": "[3]", "value": 60, "unit": "min"}, {"measurement": "HMFI population", "setting": "MCF-7 cells; 2µM TP2Py with 10µM cyclosporine A (CsA)", "value": 13, "unit": "%"}, {"measurement": "HMFI population", "setting": "MCF-7 cells; 2µM TP2Py with 20µM Bapta-am", "value": 19, "unit": "%"}, {"measurement": "HMFI population", "setting": "MCF-7 cells; 2µM TP2Py with 1 mM N-Acetyl cysteine (NAC)", "value": 25, "unit": "%"}, {"measurement": "HMFI population (Annexin V positive, TP2Py positive)", "setting": "MCF-7 cells; 30 min illumination (452 nm, 40 MW.cm^-2)", "value": 29, "unit": "%"}, {"measurement": "HMFI population (Annexin V positive, TP2Py positive)", "setting": "MCF-7 cells; 60 min illumination", "value": 38, "unit": "%"}, {"measurement": "HMFI population (Annexin V positive, TP2Py positive)", "setting": "MCF-7 cells; without light illumination", "value": 4.3, "unit": "%"}, {"measurement": "HMFI population (H2DCF-DA positive, TP2Py positive)", "setting": "[4]; 30 min illumination, 40mW/cm^2", "value": 15.4, "unit": "%"}, {"measurement": "HMFI population (H2DCF-DA positive, TP2Py positive)", "setting": "[4]; without light exposure", "value": 4.9, "unit": "%"}, {"measurement": "dark toxicity (concentration below which negligible)", "setting": "HeLa cells [5]", "value": "≥ 50", "unit": "µM"}, {"measurement": "maximum of emission in vitro, DNA-bound", "setting": "DNA; Allains et al. 2007", "value": 634, "unit": "nm"}, {"measurement": "λmax,emission", "setting": "DNA; b156 attributes 634 nm to DNA-bound TP2Py in vitro (Allains et al. 2007)", "value": 634, "unit": "nm"}]}]}
